Columns and labels:
MV-4-11 AML cells = test: MLLr AML xenograft model MV-4-11; format: in vivo, female CB17 SCID mice; conditions: for % REGRESSION AT DOSING END / % TUMOR REGROWTH AT STUDY END: 14 days
Method: MV-4-11 cells were grown in RPM1 1640 (Gibco, #21875091) supplemented with 10% FBS (Gibco; #10091-148) and 1% Pen/Strep (Gibco; #15140-122). Cells were harvested and resuspended in PBS/Matrigel (Corning; #CLS354234) (50/50). The compound of Example 56-2 was formulated in water at pH 4.5-5 using 1 M MSA as pH-adjusting agent at the concentrations up to 100 mg/mL to achieve a uniform suspension and dosed twice daily by oral gavage 10 mL/kg. For convenience, the compound of Example 56-2 is referred to as “Compound 56-2” in this Example and the other Examples.
10 million human MV-4-11 AML cells were implanted subcutaneously in the right flank of female CB17 SCID mice. Mice were randomized into groups of 5 when average tumor volume reached approximately 160 mm^3. Mice were treated for 14 days with vehicle (water at pH 4.5-5 using 1M MSA) or Compound 56-2 at 30, 100, or 200 mg/kg. Compound 56-2 was dosed orally twice daily 8/16 hours apart. The group administered Compound 56-2 at 30, 100, 200 mg/kg were monitored for regrowth for 6 weeks. […] FIG. 1 illustrates the effect of treatment with Compound 56-2 on tumor volume in this MLLr MV-4-11 human AML cancer xenograft mouse model.

CBAM-68552 = test: MLLr AML patient derived disseminated xenograft model CBAM-68552; format: in vivo, female NSG mice; conditions: 150 mg/kg oral twice daily, 21 days
Method: (§1) Viably frozen A. CBAM-68552, B. CBAM-44728, and C. DFAL-49600 single cell suspensions from spleens of donor mice were prepared into frozen stock. Flow cytometry antibodies for Ter119 (Miltenyi 130-112-914), mouse CD45 (Miltenyi 130-110-665), and human CD45 (Miltenyi 130-110-634) and Fixable Live Dead Stain (ThermoFisher; #L34963) for disease evaluation via flow cytometry on MACSQuant (Miltenyi). Compound 56-2 was formulated in water at pH 4.5-5 using 1M MSA as pH-adjusting agent at concentrations up to 100 mg/mL to achieve a uniform suspension and dosed twice daily by oral gavage 10 mL/kg.
(§2) A. CBAM-68552, B. CBAM-44728, and C. DFAL-49600 cells were thawed and 1 million cells implanted via the tail vein in to female NSG mice. Mice were randomized into groups of 5 when human CD45 levels reached average of A. CBAM-68552 6.5%, B. CBAM-44728 4.8%, and C. DFAL-49600 12.4% in the bone marrow of satellite animals. Mice were treated for 21 days with vehicle (water at pH 4.5-5 using 1 M MSA) or Compound 56-2 at 150 mg/kg. Compound 56-2 was dosed orally twice daily 8/16 hours apart and mice were monitored for overall survival. FIGS. 3-A, 3-B, and 3-C further illustrate the effect of treatment with Compound 56-2 in human MLLr AML Patient Derived Disseminated Xenograft Models A. CBAM-68552, B. CBAM-44728, and C. DFAL-49600, respectively.

CBAM-44728 = test: MLLr AML patient derived disseminated xenograft model CBAM-44728; format: in vivo, female NSG mice; conditions: 150 mg/kg oral twice daily, 21 days
Method: as §1, §2

Menin protein = Menin protein (Homo sapiens (Human), UniProt O00255); test: Menin protein degradation in MV-4-11 SILAC cells (pulse SILAC, PRM); format: cell-based; conditions: 300 nM
Method: An MV-4-11 cell line was passaged at least eight times in SILAC-IMDM (ThermoFisher, #88367), which lacks L-lysine and L-arginine, and supplemented with 10% (v/v) dialyzed FBS (ThermoFisher, #A3382001), [^13C6, ^15N2]-L-lysine, and [^13C6, ^15N4]-L-arginine (Sigma #608041 and #608033) (100 μg/mL each) to achieve “heavy cell” status as determined by LC-MS/MS. Whenever thawed, the “heavy-labelled” cells were passaged at least three times before use in experiments. “Light” medium was prepared by supplementing SILAC-IMDM with 10% (v/v) dialyzed FBS and unlabeled L-arginine and L-lysine (Sigma, #A6969, #L8662). SILAC-IMDM was either supplemented with 300 nM of Compound 56-2 (10 mM solution in DMSO) or the equivalent amounts of DMSO as control. Cells were transferred to “light” media, incubated at 37° C., 5% CO2, and collected at various time points (0 hrs, 1 hrs, 2 hrs, 4.25 hrs, 10.25 hrs, 20.75 hrs, 28.5 hrs, 47 hrs, 72 hrs) by two washes with ice cold PBS and pelleted by centrifugation.
Cell pellets (approximately 2×10^5 cells) were transferred to 96-well plate using cell lysis buffer (4% SDS, 50 mM HEPES pH 7.4, 5 mM TCEP, and 10 mM chloroacetamide) and heated to 95° C. for 10 minutes. […] The PRM data were analyzed with Skyline (University of Washington, Seattle, WA., Ref.) using high-selectivity data extraction. […]

Chain of Menin protein (O00255 whole entry): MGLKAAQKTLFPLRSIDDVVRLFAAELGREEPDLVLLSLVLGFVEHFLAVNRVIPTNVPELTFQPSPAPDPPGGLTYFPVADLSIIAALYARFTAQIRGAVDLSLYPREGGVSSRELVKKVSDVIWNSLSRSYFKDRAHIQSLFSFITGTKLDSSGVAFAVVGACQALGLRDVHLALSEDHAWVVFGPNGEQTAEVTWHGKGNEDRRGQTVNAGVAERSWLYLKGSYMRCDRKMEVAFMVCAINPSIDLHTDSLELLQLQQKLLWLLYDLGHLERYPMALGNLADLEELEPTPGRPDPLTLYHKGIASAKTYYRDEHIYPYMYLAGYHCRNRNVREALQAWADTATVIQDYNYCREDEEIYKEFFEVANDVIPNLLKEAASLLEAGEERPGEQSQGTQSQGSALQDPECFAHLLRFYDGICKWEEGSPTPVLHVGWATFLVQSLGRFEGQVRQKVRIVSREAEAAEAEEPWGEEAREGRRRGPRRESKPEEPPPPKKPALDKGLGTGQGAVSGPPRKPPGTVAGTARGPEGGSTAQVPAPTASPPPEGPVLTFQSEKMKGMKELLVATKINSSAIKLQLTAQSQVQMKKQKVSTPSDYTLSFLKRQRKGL

Cc1c(C(=O)C2CCN(C(=O)[C@@H]3CCC(C)(C)N3)CC2)c2ccncc2n1-c1ccc(F)cc1C(=O)N(C(C)C)C(C)C (single isomer, unassigned) [Compound 56-2]
% REGRESSION AT DOSING END (MV-4-11 AML cells; 30 mg/kg oral twice daily): 88%
% TUMOR REGROWTH AT STUDY END (MV-4-11 AML cells; 30 mg/kg oral twice daily, monitored 6 weeks): 100%
tumor regrowth (in words) (MV-4-11 AML cells; 100 mg/kg and 200 mg/kg, monitored 6 weeks): no tumor regrowth
% REGRESSION AT DOSING END (MV-4-11 AML cells; 100 mg/kg oral twice daily): 97%
% TUMOR REGROWTH AT STUDY END (MV-4-11 AML cells; 100 mg/kg oral twice daily, monitored 6 weeks): 0%
% REGRESSION AT DOSING END (MV-4-11 AML cells; 200 mg/kg oral twice daily): 99%
% TUMOR REGROWTH AT STUDY END (MV-4-11 AML cells; 200 mg/kg oral twice daily, monitored 6 weeks): 0%
LATENCY (overall survival) (CBAM-68552): 188 days
LATENCY (overall survival) (CBAM-44728): 106 days
kdeg (rate of degradation of heavy Menin protein) (Menin protein): 3.89e-05 s⁻¹
